system: HEK293 cells; experiment: HEK293 VLCFA-LPC IC50 determination (13C-labeled C26:0 LPC by UHPLC/MS); format: cell-based, human; settings: Homo sapiens, HEK293, HEK293 cells; average of one or more replicates; read-out: Average HEK293 IC50
How it was run: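 Suspension HEK293 cells (final 0.5 million/mL after mixing with equal volume) incubated 48 hours with compound plus 13C-acetate (1.0 mg/mL in added media), shaking at 37° C. Lipids extracted with hexane/isopropanol or methanol, C13:0 LPC standard. UHPLC/MS of 13C-labeled C26:0 LPC (638.500/104.100 m/z); IC50 by four-parameter fit.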

| SMILES | IC50 |
| --- | --- |
| COc1cc(-n2ccc(NC(=O)C3(c4ccc(F)cn4)CC3)n2)ccn1 [Compound 485, 1-(5-fluoro-2-pyridyl)-N-[1-(2-methoxy-4-pyridyl)pyrazol-3-yl]cyclopropanecarboxamide] | 1500 nM |
| O=C(Nc1ccn(-c2cc(F)cc(F)c2)n1)C1(c2ccc(F)cn2)CC1 [Compound 487, N-[1-(3,5-difluorophenyl)pyrazol-3-yl]-1-(5-fluoro-2-pyridyl)cyclopropanecarboxamide] | 1200 nM |
| O=C(Nc1ccn(-c2ccc(F)cc2)n1)C1(c2ccc(F)cn2)CC1 [Compound 488, N-[1-(4-fluorophenyl)pyrazol-3-yl]-1-(5-fluoro-2-pyridyl)cyclopropanecarboxamide] | 510 nM |
| O=C(Nc1ccn(-c2ccncc2)n1)C1(c2ccc(F)cn2)CC1 [Compound 489, 1-(5-fluoro-2-pyridyl)-N-[1-(4-pyridyl)pyrazol-3-yl]cyclopropanecarboxamide] | 1500 nM |
| O=C(Nc1ccn(-c2cncc(OC(F)F)c2)n1)C1(c2ccc(F)cn2)CC1 [Compound 490, N-[1-[5-(difluoromethoxy)-3-pyridyl]pyrazol-3-yl]-1-(5-fluoro-2-pyridyl)cyclopropanecarboxamide] | > 5000 nM |
| COc1cc(-n2ccc(NC(=O)C3(c4cnccn4)CC3)n2)ccn1 [Compound 491, N-[1-(2-methoxy-4-pyridyl)pyrazol-3-yl]-1-pyrazin-2-yl-cyclopropanecarboxamide] | > 5000 nM |
| O=C(Nc1ccn(-c2ccc(F)c(F)c2)n1)C1(c2cnccn2)CC1 [Compound 492, N-[1-(3,4-difluorophenyl)pyrazol-3-yl]-1-pyrazin-2-yl-cyclopropanecarboxamide] | > 5000 nM |
| O=C(Nc1ccn(-c2cc(F)cc(F)c2)n1)C1(c2cnccn2)CC1 [Compound 493, N-[1-(3,5-difluorophenyl)pyrazol-3-yl]-1-pyrazin-2-yl-cyclopropanecarboxamide] | > 5000 nM |
| O=C(Nc1ccn(-c2ccc(F)cc2)n1)C1(c2cnccn2)CC1 [Compound 494, N-[1-(4-fluorophenyl)pyrazol-3-yl]-1-pyrazin-2-yl-cyclopropanecarboxamide] | > 5000 nM |
| O=C(Nc1ccn(-c2ccncc2)n1)C1(c2cnccn2)CC1 [Compound 495, 1-pyrazin-2-yl-N-[1-(4-pyridyl)pyrazol-3-yl]cyclopropanecarboxamide] | > 5000 nM |
| O=C(Nc1ccn(-c2cncc(OC(F)F)c2)n1)C1(c2cnccn2)CC1 [Compound 496, N-[1-[5-(difluoromethoxy)-3-pyridyl]pyrazol-3-yl]-1-pyrazin-2-yl-cyclopropanecarboxamide] | > 5000 nM |
| Cc1cnc(C2(C(=O)Nc3ccn(-c4cncc(F)c4)n3)CC2)c(F)c1 [Compound 497, 1-(3-fluoro-5-methyl-2-pyridyl)-N-[1-(5-fluoro-3-pyridyl)pyrazol-3-yl]cyclopropanecarboxamide] | 2100 nM |
| O=C(Nc1ccn(-c2cncc(F)c2)n1)C1(c2ncc(Cl)cc2F)CC1 [Compound 498, 1-(5-chloro-3-fluoropyridin-2-yl)-N-(1-(5-fluoropyridin-3-yl)-1H-pyrazol-3-yl)cyclopropane-1-carboxamide] | 470 nM |
| COc1ccnc(-n2ccc(NC(=O)C3(c4ccccc4F)CC3)n2)c1 [Compound 501, 1-(2-fluorophenyl)-N-[1-(4-methoxy-2-pyridyl)pyrazol-3-yl]cyclopropanecarboxamide] | > 5000 nM |
| COc1cccc(-n2ccc(NC(=O)C3(c4ccccc4F)CC3)n2)n1 [Compound 502, 1-(2-fluorophenyl)-N-[1-(6-methoxy-2-pyridyl)pyrazol-3-yl]cyclopropanecarboxamide] | > 5000 nM |
| CC1CC1(C(=O)Nc1ccn(-c2cncc(F)c2)n1)c1ncccc1F (centres unmarked) [Compound 503, 1-(3-fluoro-2-pyridyI)-N-[1-(5-fluoro-3-pyridyl)pyrazol-3-yl]-2-methyl-cyclopropanecarboxamide] | 110 nM |
| CC1CC1(C(=O)Nc1ccn(-c2cncc(Cl)c2)n1)c1ncccc1F (centres unmarked) [Compound 504, N-[1-(5-chloro-3-pyridyl)pyrazol-3-yl]-1-(3-fluoro-2-pyridyl)-2-methyl-cyclopropanecarboxamide] | 120 nM |
| CC1CC1(C(=O)Nc1ccn(-c2ccc(F)cc2)n1)c1ncccc1F (centres unmarked) [Compound 505, N-[1-(4-fluorophenyl)pyrazol-3-yl]-1-(3-fluoro-2-pyridyl)-2-methyl-cyclopropanecarboxamide] | 110 nM |
| CC1CC1(C(=O)Nc1ccn(-c2ccc(F)c(F)c2)n1)c1ncccc1F (centres unmarked) [Compound 506, N-[1-(3,4-difluorophenyl)pyrazol-3-yl]-1-(3-fluoro-2-pyridyl)-2-methyl-cyclopropanecarboxamide] | 220 nM |

| SMILES | IC50 |
| --- | --- |
| Cc1cc(NC(=O)C2(c3ncccc3F)CC2C)nn1-c1ccc(F)cc1F (centres unmarked) [Compound 507, N-[1-(2,4-difluorophenyl)-5-methyl-pyrazol-3-yl]-1-(3-fluoro-2-pyridyl)-2-methyl-cyclopropanecarboxamide] | > 5000 nM |
| CC1CC1(C(=O)Nc1ccn(-c2cc(F)cc(F)c2)n1)c1ncccc1F (centres unmarked) [Compound 508, N-[1-(3,5-difluorophenyl)pyrazol-3-yl]-1-(3-fluoro-2-pyridyl)-2-methyl-cyclopropanecarboxamide] | 71 nM |
| COc1ncc(-n2ccc(NC(=O)C3(c4ncccc4F)CC3C)n2)cc1F (centres unmarked) [Compound 509, N-[1-(5-fluoro-6-methoxy-3-pyridyl)pyrazol-3-yl]-1-(3-fluoro-2-pyridyl)-2-methyl-cyclopropanecarboxamide] | 180 nM |
| COc1cc(-n2ccc(NC(=O)C3(c4ncccc4F)CC3C)n2)ccn1 (centres unmarked) [Compound 510, 1-(3-fluoro-2-pyridyl)-N-[1-(2-methoxy-4-pyridyl)pyrazol-3-yl]-2-methyl-cyclopropanecarboxamide] | 670 nM |
| CC1(C)CC1(C(=O)Nc1ccn(-c2cncc(F)c2)n1)c1ncccc1F (centres unmarked) [Compound 511, 1-(3-fluoro-2-pyridyl)-N-[1-(5-fluoro-3-pyridyl)pyrazol-3-yl]-2,2-dimethyl-cyclopropanecarboxamide] | 310 nM |
| CC1(C)CC1(C(=O)Nc1ccn(-c2cncc(Cl)c2)n1)c1ncccc1F (centres unmarked) [Compound 512, N-[1-(5-chloro-3-pyridyl)pyrazol-3-yl]-1-(3-fluoro-2-pyridyl)-2,2-dimethyl-cyclopropanecarboxamide] | 1100 nM |
| CC1(C)CC1(C(=O)Nc1ccn(-c2ccc(F)cc2)n1)c1ncccc1F (centres unmarked) [Compound 513, N-[1-(4-fluorophenyl)pyrazol-3-yl]-1-(3-fluoro-2-pyridyl)-2,2-dimethyl-cyclopropanecarboxamide] | 980 nM |
| CC1(C)CC1(C(=O)Nc1ccn(-c2ccc(F)c(F)c2)n1)c1ncccc1F (centres unmarked) [Compound 514, N-[1-(3,4-difluorophenyl)pyrazol-3-yl]-1-(3-fluoro-2-pyridyl)-2,2-dimethyl-cyclopropanecarboxamide] | 1800 nM |
| Cc1cc(NC(=O)C2(c3ncccc3F)CC2(C)C)nn1-c1ccc(F)cc1F (centres unmarked) [Compound 515, N-[1-(2,4-difluorophenyl)-5-methyl-pyrazol-3-yl]-1-(3-fluoro-2-pyridyl)-2,2-dimethyl-cyclopropanecarboxamide] | > 5000 nM |
| CC1(C)CC1(C(=O)Nc1ccn(-c2cc(F)cc(F)c2)n1)c1ncccc1F (centres unmarked) [Compound 516, N-[1-(3,5-difluorophenyl)pyrazol-3-yl]-1-(3-fluoro-2-pyridyl)-2,2-dimethyl-cyclopropanecarboxamide] | 1300 nM |
| COc1ncc(-n2ccc(NC(=O)C3(c4ncccc4F)CC3(C)C)n2)cc1F (centres unmarked) [Compound 517, N-[1-(5-fluoro-6-methoxy-3-pyridyl)pyrazol-3-yl]-1-(3-fluoro-2-pyridyl)-2,2-dimethyl-cyclopropanecarboxamide] | 1100 nM |
| CC1(C)CC1(C(=O)Nc1ccn(-c2ccncc2)n1)c1ncccc1F (centres unmarked) [Compound 518, 1-(3-fluoro-2-pyridyl)-2,2-dimethyl-N-[1-(4-pyridyl)pyrazol-3-yl]cyclopropanecarboxamide] | 1200 nM |
| COc1cc(-n2ccc(NC(=O)C3(c4ncccc4F)CC3(C)C)n2)ccn1 (centres unmarked) [Compound 519, 1-(3-fluoro-2-pyridyl)-N-[1-(2-methoxy-4-pyridyl)pyrazol-3-yl]-2,2-dimethyl-cyclopropanecarboxamide] | > 2000 nM |
| O=C(Nc1ccn(-c2cncc(Cl)c2)n1)C1(c2ncccc2F)CC12CC2 (centres unmarked) [Compound 520, N-[1-(5-chloro-3-pyridyl)pyrazol-3-yl]-2-(3-fluoro-2-pyridyl)spiro[2.2]pentane-2-carboxamide] | 1600 nM |
| O=C(Nc1ccn(-c2ccc(F)cc2)n1)C1(c2ncccc2F)CC12CC2 (centres unmarked) [Compound 521, N-[1-(4-fluorophenyl)pyrazol-3-yl]-2-(3-fluoro-2-pyridyl)spiro[2.2]pentane-2-carboxamide] | 2300 nM |
| O=C(Nc1ccn(-c2ccc(F)c(F)c2)n1)C1(c2ncccc2F)CC12CC2 (centres unmarked) [Compound 522, N-[1-(3,4-difluorophenyl)pyrazol-3-yl]-2-(3-fluoro-2-pyridyl)spiro[2.2]pentane-2-carboxamide] | 810 nM |
| Cc1cc(NC(=O)C2(c3ncccc3F)CC23CC3)nn1-c1ccc(F)cc1F (centres unmarked) [Compound 523, N-[1-(2,4-difluorophenyl)-5-methyl-pyrazol-3-yl]-2-(3-fluoro-2-pyridyl)spiro[2.2]pentane-2-carboxamide] | > 2000 nM |
| O=C(Nc1ccn(-c2cc(F)cc(F)c2)n1)C1(c2ncccc2F)CC12CC2 (centres unmarked) [Compound 524, N-[1-(3,5-difluorophenyl)pyrazol-3-yl]-2-(3-fluoro-2-pyridyl)spiro[2.2]pentane-2-carboxamide] | 1500 nM |
| COc1ncc(-n2ccc(NC(=O)C3(c4ncccc4F)CC34CC4)n2)cc1F (centres unmarked) [Compound 525, N-[1-(5-fluoro-6-methoxy-3-pyridyl)pyrazol-3-yl]-2-(3-fluoro-2-pyridyl)spiro[2.2]pentane-2-carboxamide] | 680 nM |
